# Article PMC12428237, “Study on the Calcium Transport-Promoting Property and Mechanism of the Peptide–Calcium Complex DEEENDQVK–Ca Based on a Caco-2 Monolayer Model” (Foods, 2025)
# Assays:
# Assay type in all cases: cell-based, human
# PMCA1b = assay: RT-qPCR, PMCA1b mRNA expression; conditions: Caco-2 monolayer, 24 h, 2 mg/mL DK–Ca or 2 mg/mL DK + 7.5 mM CaCl2; normalized to GAPDH, 2^-ΔΔCt; n = 3
# Experimental: (§1) The expression levels of genes related to calcium transport channels were determined following the method of Li et al.. After 21 days of establishing the Caco-2 monolayer model, the monolayers were treated for 24 h with a complete medium containing 2 mg/mL DK–Ca or 2 mg/mL DK + 7.5 mM CaCl2. The group without an added sample served as the control group. Subsequently, the monolayers were washed thrice with HBSS buffer before cell lysis using 200 μL RNAiso Plus. Total RNA was extracted, and first-strand cDNA synthesis was subsequently performed with the PrimeScript® RT reagent kit as per the kit manufacturer’s instructions. Using cDNA as a template, RT-qPCR was performed with gene-specific primers targeting TRPV6, calbindin-D9k, PMCA1b, occludin, and claudin-2. The standard procedure for PCR amplification was as follows: 95 °C for 30 s, followed by 40 cycles of 95 °C for 5 s, 60 °C for 30 s, and 72 °C for 1 min. Target gene expression level was normalized to GAPDH and calculated using the 2^^(-ΔΔCt) relative quantification method. In experimental groups, GAPDH served as the internal reference gene for normalization. All primer sequences used in this study are detailed in Table S1.
# claudin-2 = assay: RT-qPCR, claudin-2 mRNA expression; conditions: Caco-2 monolayer, 24 h, 2 mg/mL DK–Ca or 2 mg/mL DK + 7.5 mM CaCl2; normalized to GAPDH, 2^-ΔΔCt; n = 3
# Experimental: as §1
# Caco-2 monolayer = assay: Fluo-4 AM fluorescence imaging of intracellular calcium influx; conditions: samples containing 150 μg/mL calcium, 24 h, Fluo-4 AM 4 μmol/L, confocal microscope
# Experimental: Fluorescence imaging based on intracellular calcium influx was conducted to assess the calcium transport-promoting effect in the Caco-2 monolayer following the method of Men et al.. Log-phase cells were seeded at 1.5 × 10^5 cells/well in 35 mm laser confocal dishes and gently agitated to ensure uniform distribution. Cultures were maintained at 37 °C in 5% CO2 with daily medium replacement until confluent monolayers formed. Subsequently, CaCl2, DK + CaCl2, and DK–Ca solutions (each containing 150 μg/mL calcium) were added separately. The group without an added sample served as the control group. Following 24 h of incubation, the cells were washed thrice with prewarmed calcium-/magnesium-free HBSS buffer (pH 7.2). Under light-protected conditions, 200 µL of Fluo-4 AM (4 μmol/L) was applied to cover the cells. Following 30 min incubation at 37 °C and subsequent washes, cells were dark-adapted for 10 min at room temperature for de-esterification. Imaging was conducted using a confocal microscope (excitation at 496 nm, Zeiss LSM980 Airyscan2, Carl Zeiss, Germany ), followed by quantification of the fluorescence intensity with ImageJ 1.54 g software.
# occludin = assay: RT-qPCR, occludin mRNA expression; conditions: Caco-2 monolayer, 24 h, 2 mg/mL DK–Ca or 2 mg/mL DK + 7.5 mM CaCl2; normalized to GAPDH, 2^-ΔΔCt; n = 3
# Experimental: as §1
# calbindin-D9k = assay: RT-qPCR, calbindin-D9k mRNA expression; conditions: Caco-2 monolayer, 24 h, 2 mg/mL DK–Ca or 2 mg/mL DK + 7.5 mM CaCl2; normalized to GAPDH, 2^-ΔΔCt; n = 3
# Experimental: as §1
substance,measurement,setting,value
"DEEENDQVK–Ca [DK–Ca, complex formed by chemically chelating DK with CaCl2]","PMCA1b mRNA expression, upregulation compared to the untreated control group",PMCA1b,2.17 fold
same,"claudin-2 mRNA expression, upregulation compared to the control group",claudin-2,1.50 fold
same,fluorescence intensity (intracellular calcium influx) compared to the control group,Caco-2 monolayer,significantly increased
same,occludin mRNA expression compared to the control group,occludin,unchanged
same,"calbindin-D9k mRNA expression, upregulation compared to the untreated control group",calbindin-D9k,2.26 fold
